Values of other authors in patent publication US5565431A, “Cancer cell inhibitors and method” (priority 1994, dated 1996).

Key:
[1] = test system: normal colonic mucosa cells; details: Garcia et al. (9)
[2] = test system: seven colon cancer cell lines; details: Garcia et al. (9)

CO[C@H]1[C@@H](OC)C[C@H](C)[C@@H](OC)C2=CC(=O)C=C(NC(=O)/C(C)=C/C=C\[C@H](OC)[C@@H](OC(N)=O)/C(C)=C/[C@@H]1C)C2=O [herbimycin A]
Inhibition of normal colonic mucosa cells [1]: 12%
Inhibition of seven colon cancer cell lines [2]: greater than 40%
